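A five-concentration, 48-hour dose response in 96-well plates underlies each endpoint, interpolated linearly between surrounding concentrations. GI50 = concentration required for 50% inhibition of growth.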 Active and inactive are the calls of the source. Cut-off read from the data, not from the text of the source: active = GI50 up to about 1.1 µM and inactive = higher.
Assays:
Test in all cases: growth of human tumour cells (NCI), 48 h
CCRF-CEM = system: CCRF-CEM
Hs-578T = system: Hs-578T
HT-29 = system: HT-29
SF-268 = system: SF-268
KM12 = system: KM12
UACC-62 = system: UACC-62
MDA-MB-231 = system: MDA-MB-231
SN12C = system: SN12C
HCT-15 = system: HCT-15
OVCAR-3 = system: OVCAR-3
Malme-3M = system: Malme-3M
OVCAR-4 = system: OVCAR-4
A498 = system: A498
T47D = system: T47D
ACHN = system: ACHN
NCI/ADR-RES = system: NCI/ADR-RES
SNB-75 = system: SNB-75
SK-MEL-28 = system: SK-MEL-28
SW-620 = system: SW-620
UO-31 = system: UO-31
UACC-257 = system: UACC-257
NCI-H23 = system: NCI-H23
MOLT-4 = system: MOLT-4
SR = system: SR
HCC 2998 = system: HCC 2998
HCT-116 = system: HCT-116
LOX IMVI = system: LOX IMVI
RPMI-8226 = system: RPMI-8226
SF-295 = system: SF-295
MDA-N = system: MDA-N
SF-539 = system: SF-539
CAKI-1 = system: CAKI-1
SK-MEL-5 = system: SK-MEL-5
K562 = system: K562
MCF7 = system: MCF7
U-251 = system: U-251
HOP-92 = system: HOP-92
NCI-H522 = system: NCI-H522
NCI-H226 = system: NCI-H226
SK-OV-3 = system: SK-OV-3
BT-549 = system: BT-549
MDA-MB-435 = system: MDA-MB-435
PC-3 = system: PC-3
OVCAR-5 = system: OVCAR-5
HOP-62 = system: HOP-62
NCI-H460 = system: NCI-H460
OVCAR-8 = system: OVCAR-8
DU-145 = system: DU-145
COLO 205 = system: COLO 205
RXF 393 = system: RXF 393
786-0 = system: 786-0
HL-60 = system: HL-60
EKVX = system: EKVX
A549 = system: A549
TK-10 = system: TK-10
M14 = system: M14
SK-MEL-2 = system: SK-MEL-2
IGROV-1 = system: IGROV-1
SNB-19 = system: SNB-19

**Q.** Which results are given for Cc1sc2nc3n(c(=O)c2c1C)N=C(c1ccc([N+](=O)[O-])cc1)CS3?
**A.** GI50 (CCRF-CEM): > 100 µM (inactive); GI50 (Hs-578T): 97.5 µM (inactive); GI50 (HT-29): > 100 µM (inactive); GI50 (SF-268): > 100 µM (inactive); GI50 (KM12): > 100 µM (inactive); GI50 (UACC-62): > 100 µM (inactive); GI50 (MDA-MB-231): > 100 µM (inactive); GI50 (SN12C): > 100 µM (inactive); GI50 (HCT-15): > 100 µM; GI50 (OVCAR-3): > 100 µM (inactive); GI50 (Malme-3M): > 100 µM (inactive); GI50 (OVCAR-4): > 10 µM (inactive); GI50 (A498): > 100 µM (inactive); GI50 (T47D): > 100 µM (inactive); GI50 (ACHN): > 100 µM (inactive); GI50 (NCI/ADR-RES): > 100 µM (inactive); GI50 (SNB-75): 83.8 µM (inactive); GI50 (SK-MEL-28): > 100 µM (inactive); GI50 (SW-620): > 100 µM (inactive); GI50 (UO-31): > 100 µM (inactive); GI50 (UACC-257): > 100 µM (inactive); GI50 (NCI-H23): > 100 µM (inactive); GI50 (MOLT-4): > 100 µM (inactive); GI50 (SR): > 100 µM (inactive); GI50 (HCC 2998): > 100 µM (inactive); GI50 (HCT-116): > 100 µM (inactive); GI50 (LOX IMVI): > 100 µM (inactive); GI50 (RPMI-8226): > 100 µM (inactive); GI50 (SF-295): > 100 µM (inactive); GI50 (MDA-N): > 100 µM (inactive); GI50 (SF-539): > 100 µM (inactive); GI50 (CAKI-1): > 100 µM (inactive); GI50 (SK-MEL-5): > 100 µM (inactive); GI50 (K562): > 100 µM (inactive); GI50 (MCF7): > 100 µM (inactive); GI50 (U-251): > 100 µM (inactive); GI50 (HOP-92): > 100 µM (inactive); GI50 (NCI-H522): > 100 µM (inactive); GI50 (NCI-H226): > 100 µM (inactive); GI50 (SK-OV-3): > 100 µM (inactive); GI50 (BT-549): 56.5 µM (inactive); GI50 (MDA-MB-435): > 100 µM (inactive); GI50 (PC-3): > 100 µM (inactive); GI50 (OVCAR-5): > 100 µM (inactive); GI50 (HOP-62): 61.9 µM (inactive); GI50 (NCI-H460): > 100 µM (inactive); GI50 (OVCAR-8): > 100 µM (inactive); GI50 (DU-145): > 100 µM (inactive); GI50 (COLO 205): > 100 µM (inactive); GI50 (RXF 393): > 100 µM (inactive); GI50 (786-0): > 100 µM (inactive); GI50 (HL-60): > 100 µM (inactive); GI50 (EKVX): > 100 µM (inactive); GI50 (A549): > 100 µM (inactive)

**Q.** How did the GI50 (CCRF-CEM) turn out when COc1cc(S(=O)(=O)Nc2nc(-c3ccc(/N=C/c4cccs4)cc3)cs2)ccc1Cl was run?
**A.** Its GI50 is 33.7 µM (inactive).

**Q.** And the GI50 (Hs-578T)?
**A.** The GI50 was > 100 µM (inactive).

**Q.** What about the GI50 (HT-29) of the same compound?
**A.** Its GI50 is > 100 µM (inactive).

**Q.** And the GI50 (SF-268)?
**A.** Its GI50 is 56.6 µM (inactive).

**Q.** And the GI50 (KM12)?
**A.** Its GI50 is 67.1 µM (inactive).

**Q.** And the GI50 (UACC-62)?
**A.** Its GI50 is 19.8 µM (inactive).

**Q.** And the GI50 (MDA-MB-231)?
**A.** The GI50 was 95.1 µM (inactive).

**Q.** What about the GI50 (SN12C) of the same compound?
**A.** The GI50 was 28.8 µM (inactive).

**Q.** What about the GI50 (HCT-15) of the same compound?
**A.** The GI50 was 36.1 µM.

**Q.** And the GI50 (OVCAR-3)?
**A.** The GI50 was 27.5 µM (inactive).

**Q.** And the GI50 (Malme-3M)?
**A.** The GI50 was > 100 µM (inactive).

**Q.** And the GI50 (OVCAR-4)?
**A.** Its GI50 is 38.9 µM (inactive).

**Q.** What about the GI50 (A498) of the same compound?
**A.** The GI50 was > 100 µM (inactive).

**Q.** And the GI50 (T47D)?
**A.** Its GI50 is 84.3 µM (inactive).

**Q.** And the GI50 (ACHN)?
**A.** Its GI50 is > 100 µM (inactive).

**Q.** What about the GI50 (NCI/ADR-RES) of the same compound?
**A.** The GI50 was > 100 µM (inactive).

**Q.** And the GI50 (SNB-75)?
**A.** The GI50 was 33.8 µM (inactive).

**Q.** And the GI50 (TK-10)?
**A.** The GI50 was > 100 µM (inactive).

**Q.** What about the GI50 (SK-MEL-28) of the same compound?
**A.** Its GI50 is > 100 µM (inactive).

**Q.** And the GI50 (SW-620)?
**A.** Its GI50 is 35.5 µM (inactive).

**Q.** And the GI50 (UO-31)?
**A.** The GI50 was 58.6 µM (inactive).

**Q.** What about the GI50 (UACC-257) of the same compound?
**A.** The GI50 was > 100 µM (inactive).

**Q.** What about the GI50 (NCI-H23) of the same compound?
**A.** Its GI50 is 47.1 µM (inactive).

**Q.** What about the GI50 (MOLT-4) of the same compound?
**A.** Its GI50 is 27.5 µM (inactive).

**Q.** And the GI50 (SR)?
**A.** Its GI50 is 21.7 µM (inactive).

**Q.** And the GI50 (HCC 2998)?
**A.** The GI50 was > 100 µM (inactive).

**Q.** And the GI50 (HCT-116)?
**A.** Its GI50 is 54.6 µM (inactive).

**Q.** What about the GI50 (LOX IMVI) of the same compound?
**A.** Its GI50 is 31 µM (inactive).

**Q.** What about the GI50 (SF-295) of the same compound?
**A.** The GI50 was > 100 µM (inactive).

**Q.** And the GI50 (MDA-N)?
**A.** The GI50 was > 100 µM (inactive).

**Q.** And the GI50 (SF-539)?
**A.** The GI50 was 34 µM (inactive).

**Q.** What about the GI50 (CAKI-1) of the same compound?
**A.** Its GI50 is > 100 µM (inactive).

**Q.** What about the GI50 (SK-MEL-5) of the same compound?
**A.** Its GI50 is > 100 µM (inactive).

**Q.** What about the GI50 (K562) of the same compound?
**A.** Its GI50 is 33.5 µM (inactive).

**Q.** What about the GI50 (M14) of the same compound?
**A.** Its GI50 is > 100 µM (inactive).

**Q.** What about the GI50 (MCF7) of the same compound?
**A.** Its GI50 is 36.6 µM (inactive).

**Q.** What about the GI50 (U-251) of the same compound?
**A.** The GI50 was 81.1 µM (inactive).

**Q.** What about the GI50 (HOP-92) of the same compound?
**A.** The GI50 was 37.2 µM (inactive).

**Q.** What about the GI50 (NCI-H522) of the same compound?
**A.** Its GI50 is 28.4 µM (inactive).

**Q.** And the GI50 (NCI-H226)?
**A.** The GI50 was > 100 µM (inactive).

**Q.** And the GI50 (SK-OV-3)?
**A.** Its GI50 is > 100 µM (inactive).

**Q.** What about the GI50 (BT-549) of the same compound?
**A.** Its GI50 is 37 µM (inactive).

**Q.** What about the GI50 (MDA-MB-435) of the same compound?
**A.** Its GI50 is > 100 µM (inactive).

**Q.** What about the GI50 (SK-MEL-2) of the same compound?
**A.** The GI50 was 39.5 µM (inactive).

**Q.** And the GI50 (PC-3)?
**A.** The GI50 was 76.2 µM (inactive).

**Q.** What about the GI50 (OVCAR-5) of the same compound?
**A.** The GI50 was > 100 µM (inactive).

**Q.** And the GI50 (HOP-62)?
**A.** Its GI50 is > 100 µM (inactive).

**Q.** And the GI50 (NCI-H460)?
**A.** The GI50 was > 100 µM (inactive).

**Q.** What about the GI50 (OVCAR-8) of the same compound?
**A.** The GI50 was 40.7 µM (inactive).

**Q.** And the GI50 (DU-145)?
**A.** Its GI50 is > 100 µM (inactive).

**Q.** And the GI50 (COLO 205)?
**A.** The GI50 was > 100 µM (inactive).

**Q.** What about the GI50 (IGROV-1) of the same compound?
**A.** Its GI50 is 33.7 µM (inactive).

**Q.** And the GI50 (RXF 393)?
**A.** Its GI50 is 20.4 µM (inactive).

**Q.** What about the GI50 (786-0) of the same compound?
**A.** The GI50 was > 100 µM (inactive).

**Q.** And the GI50 (HL-60)?
**A.** The GI50 was 33.9 µM (inactive).

**Q.** What about the GI50 (EKVX) of the same compound?
**A.** Its GI50 is > 100 µM (inactive).

**Q.** And the GI50 (A549)?
**A.** The GI50 was > 100 µM (inactive).

**Q.** And the GI50 (SNB-19)?
**A.** Its GI50 is > 100 µM (inactive).
